Assay results taken from ChEMBL document CHEMBL6127065, “Design and Synthesis of c-Met and HDAC Dual Inhibitors for the Treatment of Breast Cancer” (ACS Med Chem Lett, 2024).

Experiments:
MDA-MB-231 [1] = assay: Induction of cell cycle arrest in human MDA-MB-231 cells assessed as accumulation of cells at G2/M phase at 25 uM incubated for 48 hrs by PI staining based flow cytometry (reference value: 29.42 to 32.08%); assay type: functional
MDA-MB-231 [2] = assay: Induction of cell cycle arrest in human MDA-MB-231 cells assessed as accumulation of cells at S phase at 25 uM incubated for 48 hrs by PI staining based flow cytometry (reference value: 12.56 to 14.76%); assay type: functional
MDA-MB-468 = assay: Antiproliferative activity against human MDA-MB-468 cells assessed as reduction in cell growth incubated for 72 hrs by MTT assay; settings: MDA-MB-468, 72 h
[3] = Cytotoxicity against human MCF-10A cells assessed as reduction in cell viability incubated for 72 hrs by MTT assay; assay type: toxicity, cell-based
MDA-MB-231 [4] = assay: Induction of cell cycle arrest in human MDA-MB-231 cells assessed as accumulation of cells at S phase at 2.5 uM incubated for 48 hrs by PI staining based flow cytometry (reference value: 12.56 to 14.76%); assay type: functional
MDA-MB-231 [5] = assay: Inhibition of colony formation in human MDA-MB-231 cells at 0.5 to 10 uM incubated for 7 days by crystal violet staining based analysis; assay type: functional, cell-based; settings: dose 0.5-10 µM, time 7.0 day
MDA-MB-231 [6] = assay: Induction of apoptosis in human MDA-MB-231 cells assessed as late apoptotic cells at 2.5 uM incubated for 48 hrs by AnnexinV-FITC/PI staining based flow cytometry (reference value: 3.77 to 3.84%); assay type: functional
MDA-MB-231 [7] = assay: Induction of apoptosis in human MDA-MB-231 cells assessed as early apoptotic cells at 5 uM incubated for 48 hrs by AnnexinV-FITC/PI staining based flow cytometry (reference value: 1.6 to 2.41%); assay type: functional
MDA-MB-231 [8] = assay: Induction of apoptosis in human MDA-MB-231 cells assessed as necrotic cells at 10 uM incubated for 48 hrs by AnnexinV-FITC/PI staining based flow cytometry (reference value: 1.79 to 2.53%); assay type: functional
MDA-MB-231 [9] = assay: Induction of apoptosis in human MDA-MB-231 cells assessed as early apoptotic cells at 2.5 uM incubated for 48 hrs by AnnexinV-FITC/PI staining based flow cytometry (reference value: 1.6 to 2.41%); assay type: functional
[10] = target: Hepatocyte growth factor receptor (Homo sapiens, UniProt P08581); assay: Inhibition of c-Met (unknown origin) using Poly(Glu:Tyr)(4:1) and ATP as substrate incubated for 45 mins by Kinase-Glo Max reagent based luminescence analysis
Hepatocyte growth factor receptor, sequence (P08581 whole entry): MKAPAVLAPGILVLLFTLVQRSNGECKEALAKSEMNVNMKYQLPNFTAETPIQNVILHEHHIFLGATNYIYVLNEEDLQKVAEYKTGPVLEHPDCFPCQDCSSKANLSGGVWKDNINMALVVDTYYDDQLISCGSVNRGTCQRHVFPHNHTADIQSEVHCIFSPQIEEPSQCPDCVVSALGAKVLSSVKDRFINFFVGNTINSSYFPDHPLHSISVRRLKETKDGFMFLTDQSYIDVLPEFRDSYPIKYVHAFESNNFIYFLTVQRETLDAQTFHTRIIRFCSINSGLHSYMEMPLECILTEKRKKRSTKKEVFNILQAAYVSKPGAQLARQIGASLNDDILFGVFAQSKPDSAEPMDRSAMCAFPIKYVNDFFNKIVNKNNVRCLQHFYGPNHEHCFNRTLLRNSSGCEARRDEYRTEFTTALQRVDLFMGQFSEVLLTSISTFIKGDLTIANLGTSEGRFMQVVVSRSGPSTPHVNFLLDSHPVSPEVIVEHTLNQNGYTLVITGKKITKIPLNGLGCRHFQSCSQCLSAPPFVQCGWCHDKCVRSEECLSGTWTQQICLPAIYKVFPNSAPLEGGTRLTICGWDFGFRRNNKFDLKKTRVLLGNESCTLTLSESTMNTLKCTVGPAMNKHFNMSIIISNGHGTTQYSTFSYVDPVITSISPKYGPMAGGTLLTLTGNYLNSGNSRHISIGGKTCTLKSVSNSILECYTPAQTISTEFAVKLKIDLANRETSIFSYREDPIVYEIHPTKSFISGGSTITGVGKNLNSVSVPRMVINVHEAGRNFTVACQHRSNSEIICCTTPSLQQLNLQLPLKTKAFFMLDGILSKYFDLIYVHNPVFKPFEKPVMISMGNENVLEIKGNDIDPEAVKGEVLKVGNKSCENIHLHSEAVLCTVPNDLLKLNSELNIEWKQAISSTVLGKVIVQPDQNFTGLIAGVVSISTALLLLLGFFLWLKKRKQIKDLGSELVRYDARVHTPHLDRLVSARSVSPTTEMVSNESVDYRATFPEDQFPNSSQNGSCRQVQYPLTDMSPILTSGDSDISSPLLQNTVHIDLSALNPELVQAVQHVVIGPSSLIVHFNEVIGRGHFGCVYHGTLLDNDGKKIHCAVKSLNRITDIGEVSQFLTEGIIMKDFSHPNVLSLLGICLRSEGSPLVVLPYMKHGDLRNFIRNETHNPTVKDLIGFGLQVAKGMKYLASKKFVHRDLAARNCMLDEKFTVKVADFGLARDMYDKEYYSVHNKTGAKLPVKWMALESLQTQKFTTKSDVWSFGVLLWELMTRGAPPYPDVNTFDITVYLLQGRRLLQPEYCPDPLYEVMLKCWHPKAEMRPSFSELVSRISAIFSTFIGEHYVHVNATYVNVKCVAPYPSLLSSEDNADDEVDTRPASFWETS

MDA-MB-231 [11] = assay: Induction of cell cycle arrest in human MDA-MB-231 cells assessed as accumulation of cells at G0/G1 phase at 2.5 uM incubated for 48 hrs by PI staining based flow cytometry (reference value: 55.36 to 55.82%); assay type: functional
MDA-MB-231 [12] = assay: Induction of apoptosis in human MDA-MB-231 cells assessed as viable cells at […] uM incubated for 48 hrs by AnnexinV-FITC/PI staining based flow cytometry (reference value: 91.22 to 92.84%); assay type: functional; settings: read-out: Activity
MDA-MB-231 [13] = assay: Induction of apoptosis in human MDA-MB-231 cells assessed as late apoptotic cells at […] uM incubated for 48 hrs by AnnexinV-FITC/PI staining based flow cytometry (reference value: 3.77 to 3.84%); assay type: functional; settings: 1.25 µM
MDA-MB-231 [14] = assay: Induction of cell cycle arrest in human MDA-MB-231 cells assessed as accumulation of cells at G2/M phase at 1 uM incubated for 48 hrs by PI staining based flow cytometry (reference value: 29.42 to 32.08%); assay type: functional
MDA-MB-231 [15] = assay: Induction of cell cycle arrest in human MDA-MB-231 cells assessed as accumulation of cells at G0/G1 phase at 10 uM incubated for 48 hrs by PI staining based flow cytometry (reference value: 55.36 to 55.82%); assay type: functional
MDA-MB-231 [16] = assay: Induction of apoptosis in human MDA-MB-231 cells assessed as viable cells at 5 uM incubated for 48 hrs by AnnexinV-FITC/PI staining based flow cytometry (reference value: 91.22 to 92.84%); assay type: functional; settings: read-out: Activity
MDA-MB-231 [17] = assay: Induction of apoptosis in human MDA-MB-231 cells assessed as viable cells at 2.5 uM incubated for 48 hrs by AnnexinV-FITC/PI staining based flow cytometry (reference value: 91.22 to 92.84%); assay type: functional; settings: read-out: Activity
MDA-MB-231 [18] = assay: Induction of apoptosis in human MDA-MB-231 cells assessed as viable cells at 10 uM incubated for 48 hrs by AnnexinV-FITC/PI staining based flow cytometry (reference value: 91.22 to 92.84%); assay type: functional; settings: read-out: Activity
MDA-MB-231 [19] = assay: Antiproliferative activity against human MDA-MB-231 cells assessed as reduction in cell growth incubated for 72 hrs by MTT assay; settings: MDA-MB-231, 72 h
MDA-MB-231 [20] = assay: Induction of cell cycle arrest in human MDA-MB-231 cells assessed as accumulation of cells at G0/G1 phase at 1 uM incubated for 48 hrs by PI staining based flow cytometry (reference value: 55.36 to 55.82%); assay type: functional
MDA-MB-453 = assay: Antiproliferative activity against human MDA-MB-453 cells assessed as reduction in cell growth incubated for 72 hrs by MTT assay; settings: MDA-MB-453, 72 h
MDA-MB-231 [21] = assay: Induction of apoptosis in human MDA-MB-231 cells assessed as early apoptotic cells at 10 uM incubated for 48 hrs by AnnexinV-FITC/PI staining based flow cytometry (reference value: 1.6 to 2.41%); assay type: functional
MDA-MB-231 [22] = assay: Induction of cell cycle arrest in human MDA-MB-231 cells assessed as accumulation of cells at S phase at 1 uM incubated for 48 hrs by PI staining based flow cytometry (reference value: 12.56 to 14.76%); assay type: functional
MDA-MB-231 [23] = assay: Induction of cell cycle arrest in human MDA-MB-231 cells assessed as accumulation of cells at G2/M phase at 2.5 uM incubated for 48 hrs by PI staining based flow cytometry (reference value: 29.42 to 32.08%); assay type: functional
MDA-MB-231 [24] = assay: Induction of cell cycle arrest in human MDA-MB-231 cells assessed as accumulation of cells at S phase at 10 uM incubated for 48 hrs by PI staining based flow cytometry (reference value: 12.56 to 14.76%); assay type: functional
MDA-MB-231 [25] = assay: Induction of apoptosis in human MDA-MB-231 cells assessed as necrotic cells at 5 uM incubated for 48 hrs by AnnexinV-FITC/PI staining based flow cytometry (reference value: 1.79 to 2.53%); assay type: functional
MDA-MB-231 [26] = assay: Induction of apoptosis in human MDA-MB-231 cells assessed as necrotic cells at 2.5 uM incubated for 48 hrs by AnnexinV-FITC/PI staining based flow cytometry (reference value: 1.79 to 2.53%); assay type: functional
MDA-MB-231 [27] = assay: Induction of cell cycle arrest in human MDA-MB-231 cells assessed as accumulation of cells at G0/G1 phase at 25 uM incubated for 48 hrs by PI staining based flow cytometry (reference value: 55.36 to 55.82%); assay type: functional
MDA-MB-231 [28] = assay: Induction of apoptosis in human MDA-MB-231 cells assessed as early apoptotic cells at […] uM incubated for 48 hrs by AnnexinV-FITC/PI staining based flow cytometry (reference value: 1.6 to 2.41%); assay type: functional; settings: 1.25 µM
MDA-MB-231 [29] = assay: Induction of cell cycle arrest in human MDA-MB-231 cells assessed as accumulation of cells at G2/M phase at 10 uM incubated for 48 hrs by PI staining based flow cytometry (reference value: 29.42 to 32.08%); assay type: functional
MDA-MB-231 [30] = assay: Induction of apoptosis in human MDA-MB-231 cells assessed as necrotic cells at […] uM incubated for 48 hrs by AnnexinV-FITC/PI staining based flow cytometry (reference value: 1.79 to 2.53%); assay type: functional; settings: 1.25 µM
MDA-MB-231 [31] = assay: Induction of apoptosis in human MDA-MB-231 cells assessed as late apoptotic cells at 5 uM incubated for 48 hrs by AnnexinV-FITC/PI staining based flow cytometry (reference value: 3.77 to 3.84%); assay type: functional
MDA-MB-231 [32] = assay: Induction of apoptosis in human MDA-MB-231 cells assessed as late apoptotic cells at 10 uM incubated for 48 hrs by AnnexinV-FITC/PI staining based flow cytometry (reference value: 3.77 to 3.84%); assay type: functional

With CC(c1ccc2ncccc2c1)n1nnc2ncc(N3CCN(Cc4ccc(/C=C/C(=O)Nc5ccc(F)cc5N)cc4)CC3)nc21 (centres undefined) the Activity (MDA-MB-231 [1]) was 13.48%, the Activity (MDA-MB-231 [2]) was 12.08% and the IC50 (MDA-MB-468) was 1250 nM. The IC50 at 72 h [3] was > 25000 nM, the Activity (MDA-MB-231 [4]) was 9.97% and the inhibition (MDA-MB-231 [5]) was “Dose-Dependent Effect”. It also gave an Activity (MDA-MB-231 [6]) of 7.16%, an Activity (MDA-MB-231 [7]) of 2.65% and an Activity (MDA-MB-231 [8]) of 2.15%. For the same compound, the Activity (MDA-MB-231 [9]) was 3.22%, the IC50 [10] was 54.9 nM and the Activity (MDA-MB-231 [11]) was 71%. The viability at 1.25 µM (MDA-MB-231 [12]) was 88.8%, the Activity (MDA-MB-231 [13]) was 5.18% and the Activity (MDA-MB-231 [14]) was 21.12%. It also gave an Activity (MDA-MB-231 [15]) of 72.67%, a viability at 5 µM (MDA-MB-231 [16]) of 87.1% and a viability at 2.5 µM (MDA-MB-231 [17]) of 87.4%. For the same compound, the viability at 10 µM (MDA-MB-231 [18]) was 85.2%, the IC50 (MDA-MB-231 [19]) was 1630 nM and the Activity (MDA-MB-231 [20]) was 68.63%. For the same compound, the IC50 (MDA-MB-453) was 3880 nM, the Activity (MDA-MB-231 [21]) was 3.12% and the Activity (MDA-MB-231 [22]) was 10.25%. It also gave an Activity (MDA-MB-231 [23]) of 18.03%, an Activity (MDA-MB-231 [24]) of 12.11% and an Activity (MDA-MB-231 [25]) of 1.98%. It also gave an Activity (MDA-MB-231 [26]) of 2.21%, an Activity (MDA-MB-231 [27]) of 74.44% and an Activity (MDA-MB-231 [28]) of 2%. The Activity (MDA-MB-231 [29]) was 15.22%, the Activity (MDA-MB-231 [30]) was 4.05% and the Activity (MDA-MB-231 [31]) was 8.25%. The Activity (MDA-MB-231 [32]) was 9.5%.
